Read-outs that look alike come from different tables or passages of the source.
Key:
[1] = test system: SARS-CoV-2 (Isolate USA-WA1/2020); assay type: cell-based; conditions: 24 h pre-treatment, compared to DMSO treated infected control
[2] = test system: SARS-CoV-2; assay type: cell-based; conditions: post-treatment, added after 1 hour infection, compared to DMSO treated infected control, Figure 3
[3] = test system: SARS-CoV-2; assay type: cell-based
[4] = test system: SARS-CoV-2; conditions: for patients converted to negative SARS-CoV-2 test (of the 10 patients enrolled): 500 mg twice daily
[5] = cited from earlier work
[6] = test system: SARS-CoV-2 (Isolate USA-WA1/2020); experiment: Prophylactic and therapeutic treatment of SARS-CoV-2 infected hamsters; lung viral titer (TCID50 and plaque assay)
[7] = prophylactic and therapeutic conditions, both cell types (NHBE and Vero)

In the case of `CCCN(CCC)S(=O)(=O)c1ccc(C(=O)O)cc1` [probenecid, 4-[(dipropylamino)sulfony1] benzoic acid], the “reduction in plaque formation” value ([1]; 0.0001µM, another experiment, 6 well plate, Figure 2) is reported as 50%, the “reduction in plaque formation” value ([1]; 0.1µM, Vero E6, MOI 0.01, 4 days, Figure 1) is reported as 72% and the “reduction in plaque formation” value ([1]; 5µM, Vero E6, MOI 0.01, 4 days, Figure 1) is reported as ~ 89%. The “reduction in plaque formation” value ([1]; 5µM, another experiment, 6 well plate, Figure 2) was ~ 93%, the “reduction in plaque formation” value ([2]; 0.0001µM) was 40% and the “reduction in plaque formation” value ([2]; 5µM) was ~ 90%. For the same compound, the “IC50s compared with remdesivir” value [3, 7] was “lower”, the “IC90s compared with remdesivir” value [3, 7] was “lower” and the virus plaque formation ([3]; treated prophylactically or therapeutically, compared to controls) was “dose-dependent decrease”. For the same compound, the “patients converted to negative SARS-CoV-2 test (of the 10 patients enrolled)” value (“patients converted” for short) ([4]; Day 4 of treatment) was 2, the “patients converted” value ([4]; Day 9 of treatment) was “four” and the “patients converted” value ([4]; Day 14 of treatment) was “nine”. For the same compound, the “viral shedding of SARS-CoV-2” value ([4]; compared to literature pooled median of 17.2 days, all but one patient (Patient 003)) was < 17.2 days, the patient symptoms ([4]; no scored grading system used, shortness of breath and loss of taste or smell persisted) was “showed improvement” and the “coagulation and inflammatory markers” value ([4]; with the exception of one patient (Patient 001)) was “mostly maintained within normal ranges”. The lipid solubility [5] was “highly lipid soluble”, the “effectiveness of the two doses compared” value ([6]; 2 mg and 200 mg treatment, single dose) was “similarly effective” and the lung virus titers ([6]; day 3 post-infection, all probenecid-treated hamsters (2 or 200 mg/kg, prophylactic or therapeutic, single dose), PBS-treated 1E9+) was 1E5. The lung virus ([6]; day 7 post infection) was “no detectable lung virus”, the “prophylactic compared with therapeutic treatment” value ([6]; hamster, in vivo) was “worked similarly” and the “decrease of lung virus titers” value ([6]; hamsters, compared to PBS-treated) was “several logs”.

— EP4132503B1, “PROBENECID FOR USE IN THE TREATMENT OF SARS-CO-V2 INFECTIONS” (priority 2020, dated 2021)
